These are literature values, as cited in patent publication US11382851B2, “Hair dye composition containing at least one organic silicon compound, a direct dye and a film forming hydrophobic polymer” (Henkel AG & Co. KGaA, priority 2018, dated 2022).

Each structure is given as a SMILES string.

For the data set the following is noted: about 25° C.

`CCN(Cc1cccc(S(=O)(=O)[O-])c1)c1ccc(C(=C2C=CC(=[N+](CC)Cc3cccc(S(=O)(=O)[O-])c3)C=C2)c2ccccc2S(=O)(=O)[O-])cc1.[Na+].[Na+]` [Acid Blue 9]: the solubility in water result was “more than 20 % by weight”.

`O=S(=O)([O-])c1ccc(N=Nc2c(O)ccc3ccccc23)cc1.[Na+]` [Acid Orange 7, sodium salt of 4-[(2-hydroxy-1-naphthyl)azo]benzene sulphonate]: the solubility in water result is reported as “more than 7 g/L”. Consider `Nc1cc(S(=O)(=O)[O-])cc2cc(S(=O)(=O)[O-])c(N=Nc3ccccc3)c(O)c12.[Na+].[Na+]` [Acid Red 33, disodium salt of 5-amino-4-hydroxy-3-(phenylazo)-naphthalene-2,7-disulphonate], for which the solubility in water entry is listed as “about 2.5 g/L”. Turning to `O=C([O-])c1c(Cl)c(Cl)c(Cl)c(Cl)c1-c1c2c(Br)cc(=O)c(Br)c-2oc2c(Br)c(O)cc(Br)c12.O=C([O-])c1c(Cl)c(Cl)c(Cl)c(Cl)c1-c1c2c(Br)cc(=O)c(Br)c-2oc2c(Br)c(O)cc(Br)c12.[Na+].[Na+]` [Acid Red 92, disodium salt of 3,4,5,6-tetrachloro-2-(1,4,5,8-tetrabromo-6-hydroxy-3-oxoxanthen-9-yl)benzoic acid], the solubility in water entry was “greater than 10 g/L”. In the case of `O=C([O-])C1=NN(c2ccc(S(=O)(=O)[O-])cc2)C(=O)C1N=Nc1ccc(S(=O)(=O)[O-])cc1.[Na+].[Na+].[Na+]` (centres unmarked) [Acid Yellow 23, trisodium salt of 4,5-dihydro-5-oxo-1-(4-sulfophenyl)-4-((4-sulfophenyl)azo)-1H-pyrazole-3-carboxylic acid], the “solubility in water (in words)” value is on record as “highly soluble in water”.
